What follows are compounds tested on full-length human prolyl-4-hydroxylase domain (PHD) enzymes, PHD1 and PHD2 (assay: TR-FRET assay, selectivity of compounds for PHD1 over PHD2 (ratio of Kis calculated from IC50s)). Conditions: ratio of Kis (PHD2 Ki/PHD1 Ki), Kis calculated from TR-FRET IC50s by Cheng Prussoff equation; 1 uM 2-OG.
Assay type: biochemical
Excerpt: Time-resolved fluorescence resonance energy transfer (TR-FRET) assay was utilized to determine the enzymatic half maximal inhibitory concentration (IC50) value of PHD inhibitors against the full-length human prolyl-4-hydroxylase domain (PHD) enzymes, PHD1 and PHD2. The TR-FRET assay was developed based on the specific binding of hydroxylated HIF-la peptide with the complex formed by VHL, EloB and EloC (VBC), to generate a fluorescent signal. Terbium (Tb)-Donor (monoclonal antibody anti-6His-Tb-cryptate Gold) and D2-acceptor (streptavidin [SA]-D2) of TR-FRET are linked to the VBC complex and to HIF-1α peptide, respectively. The VBC complex binds specifically to the HIF-1α peptide when it is hydroxylated, allowing energy transfer from TR-FRET donor to acceptor (FIG. 1).
TR-FRET Reagents. Monoclonal antibody anti-6His-Tb-cryptate Gold (catalog #61HI2TLA) and streptavidin (SA)-D2 (catalog #610SADLA) were purchased from CisBio International (Bedford, MA, USA).
N-terminus biotinylated HIF-1α C35 synthetic peptide representing amino acids 547 to 581 and including the proline 564 PHD2 hydroxylation site was purchased from California Peptide Research (Salt Lake City, UT, USA).
VBC Complex. His-tagged recombinant VHL protein, EloB, EloC complex (His-VBC) was supplied by Axxam (Milan, Italy). Recombinant human VHL (National Center for Biotechnology Information [NCBI] accession number NP_00542.1) contained a His tag at the C-terminus of amino acids 55 to 213 and is referred to as VHL-His. VHL-His was co-expressed in E. coli with full-length human EloB (NCBI accession number Q15370.1) and full-length human EloC (NCBI accession number Q15369.1) and purified by affinity chromatography on a nickel-nitrilotriacetic acid (Ni-NTA) column as the His-VBC complex. Purity (˜80%) was assessed by sodium dodecyl sulfate polyacrylamide gel electrophoresis (SDS-PAGE).
PHD1. Recombinant human PHD1 protein (catalog #81064, Lot #24717001) was purchased from Active Motif (Carlsbad, CA, USA). PHD1 was expressed in a baculovirus expression system as the full-length protein (NCBI accession number NP_542770.2) with an N-terminal FLAG tag (molecular weight 44.9 kDa). Purity (>90%) was assessed by SDS-PAGE.
PHD2. The full-length human PHD2 enzyme was produced with a baculovirus infected insect cell (BIIC) expression system by Beryllium (Bedford, MA, USA). The PHD2 construct contained amino acids 1 to 426 of PHD2 (UniProt Knowledgebase[UniProtKB]/Swiss-Prot accession number Q9GZT9.1), and a His tag and a Tobacco Etch Virus (TEV) protease cleavage site at the N-terminus. The construct was expressed in Sf9 insect cells, purified by Ni-NTA column and digested with TEV protease to remove the His tag.
Compounds were preincubated with PHD enzyme in a 10 μL reaction volume in white 384-well Optiplate microplates (catalog #6007290, Perkin Elmer, Waltham, MA, USA). For this, 5 μL compound was serially diluted with dilution buffer (50 mM HEPES [4-(2-hydroxyethyl)-1-piperazineethanesulfonic acid] pH 7.5, 50 mM sodium chloride [NaCl], 0.01% Tween-20, 0.01% purified bovine serum albumin [BSA]) and mixed with 5 μL PHD enzyme mix prepared as a 4× concentrate in the dilution buffer containing PHD enzyme (60 nM PHD1, 20 nM PHD2, 140 nM PHD3), 40 μM ferrous ammonium sulfate (FAS), 4 mM sodium (Na) ascorbate. The plates were incubated for 30 minutes at room temperature without rotation.
Five microliters of the VBC/anti-6His-Tb-cryptate Gold mix prepared as a 4× concentrate in dilution buffer containing 20 nM His-VBC, 1.32 nM monoclonal antibody anti-6His-Tb-cryptate Gold was then added. This step was followed immediately by the addition of 5 μL of the HIF-1α C35 substrate mix prepared as a 4× concentrate in the dilution buffer containing 120 nM biotin-labeled HIF-1α C35, 132 nM SA-D2, 4 μM 2-oxoglutarate (2-OG) to reach a final reaction volume of 20 μL. […]

| Compound | Selectivity of PHD1 over PHD2 [fold] |
| --- | --- |
| CC(C)(CNC(=O)c1ncc(-c2cnn(-c3ccc(Cl)cc3Cl)c2)cc1O)C(=O)O [compound 34, 3-(5-(1-(2,4-dichlorophenyl)-1H-pyrazol-4-yl)-3-hydroxypicolinamido)-2,2-dimethylpropanoic acid] | ~24 |
| CC(C)(CNC(=O)c1ncc(-c2cccc(N)c2)cc1O)C(=O)O [compound 29, 3-(5-(3-aminophenyl)-3-hydroxypicolinamido)-2,2-dimethylpropanoic acid] | ~20 |
| CC(C)(CNC(=O)c1ncc(-c2cccc(OCCc3ccc(Cl)cc3)c2)cc1O)C(=O)O [compound 31, 3-(5-(3-(4-chlorophenethoxy)phenyl)-3-hydroxypicolinamido)-2,2-dimethylpropanoic acid] | ~40 |
| C[C@@H](CC(=O)O)NC(=O)c1ncc(-c2cccc(Cl)c2)cc1O [compound 2, (S)-3-(5-(3-chlorophenyl)-3-hydroxypicolinamido)butanoic acid] | ~16 |
| COc1ccc2cc(-c3cnc(C(=O)NCC(C)(C)C(=O)O)c(O)c3)ccc2c1 [compound 41, 3-(3-hydroxy-5-(6-methoxynaphthalen-2-yl)picolinamido)-2,2-dimethylpropanoic acid] | ~1960 |
| CC(C)(C)OC(=O)N1CCc2sc(-c3cnc(C(=O)NCC(C)(C)C(=O)O)c(O)c3)cc2C1 [compound 33, 3-(5-(5-(tert-butoxycarbonyl)-4,5,6,7-tetrahydrothieno[3,2-c]pyridin-2-yl)-3-hydroxypicolinamido)-2,2-dimethylpropanoic acid] | ~1605 |
| CC(C)(CNC(=O)c1ncc(-c2cn(CCCc3ccc(Cl)cc3)nn2)cc1O)C(=O)O [compound 47, 3-(5-(1-(3-(4-chlorophenyl)propyl)-1H-1,2,3-triazol-4-yl)-3-hydroxypicolinamido)-2,2-dimethylpropanoic acid] | ~10 |
| Cc1ccnc2ccc(-c3cnc(C(=O)NCC(C)(C)C(=O)O)c(O)c3)cc12 [compound 39, 3-(3-hydroxy-5-(4-methylquinolin-6-yl)picolinamido)-2,2-dimethylpropanoic acid] | ~230 |
| CC(C)(CNC(=O)c1ncc(-c2cccc(CN3CCCC3)c2)cc1O)C(=O)O [compound 10, 3-(3-hydroxy-5-(3-(pyrrolidin-1-ylmethyl)phenyl)picolinamido)-2,2-dimethylpropanoic acid] | ~95 |
| CC(C)(CNC(=O)c1ncc(-c2scc3c2OCCO3)cc1O)C(=O)O [compound 56, 3-(5-(2,3-dihydrothieno[3,4-b][1,4]dioxin-5-yl)-3-hydroxypicolinamido)-2,2-dimethylpropanoic acid] | ~44 |
| CC(C)(CC(=O)O)NC(=O)c1ncc(-c2cccc(Cl)c2)cc1O [compound 1, 3-(5-(3-chlorophenyl)-3-hydroxypicolinamido)-3-methylbutanoic acid] | ~14 |
| CC(C)(CNC(=O)c1ncc(-c2cccc(Oc3ccc(Cl)cc3)c2)cc1O)C(=O)O [compound 24, 3-(5-(3-(4-chlorophenoxy)phenyl)-3-hydroxypicolinamido)-2,2-dimethylpropanoic acid] | ~181 |
| CC(C)(CNC(=O)c1ncc(-c2cnn(-c3cccc(C(F)(F)F)c3)c2)cc1O)C(=O)O [compound 37, 3-(3-hydroxy-5-(1-(3-(trifluoromethyl)phenyl)-1H-pyrazol-4-yl)picolinamido)-2,2-dimethylpropanoic acid] | ~25 |
| CC(C)(CNC(=O)c1ncc(-c2cc3nc(Cl)ccc3s2)cc1O)C(=O)O [compound 35, 3-(5-(5-chlorothieno[3,2-b]pyridin-2-yl)-3-hydroxypicolinamido)-2,2-dimethylpropanoic acid] | ~271 |
| CC(CNC(=O)c1ncc(-c2ccc3ccccc3c2)cc1O)C(=O)O (centres unmarked) [compound 48, 3-(3-Hydroxy-5-(naphthalen-2-yl)picolinamido)-2-methylpropanoic acid] | ~167 |
| C[C@H](CC(=O)O)NC(=O)c1ncc(-c2cccc(Cl)c2)cc1O [compound 3, (R)-3-(5-(3-chlorophenyl)-3-hydroxypicolinamido)butanoic acid] | ~17 |
| CC(C)(CNC(=O)c1ncc(-c2ccc3cc(NS(C)(=O)=O)ccc3c2)cc1O)C(=O)O [compound 59, 3-(3-hydroxy-5-(6-(methylsulfonamido)naphthalen-2-yl)picolinamido)-2,2-dimethylpropanoic acid] | ~88 |
| CC(C)(CNC(=O)c1ncc(-c2ccc3ccccc3c2)cc1O)C(=O)O [compound 17, 3-(3-hydroxy-5-(naphthalen-2-yl)picolinamido)-2,2-dimethylpropanoic acid] | ~1031 |
| CC(C)(CNC(=O)c1ncc(-c2cccc(OCC3CC3)c2)cc1O)C(=O)O [compound 12, 3-(5-(3-(cyclopropylmethoxy)phenyl)-3-hydroxypicolinamido)-2,2-dimethylpropanoic acid] | ~1984 |
| CC(C)(CNC(=O)c1nc(C#N)c(-c2cccc(Cl)c2)cc1O)C(=O)O [compound 51, 3-(5-(3-chlorophenyl)-6-cyano-3-hydroxypicolinamido)-2,2-dimethylpropanoic acid] | ~4 |
| O=C(O)CCNC(=O)c1ncc(-c2cnn(-c3ccccc3)c2)cc1O [compound 54, 3-(3-hydroxy-5-(1-phenyl-1H-pyrazol-4-yl)picolinamido)propanoic acid] | ~11 |
| CC(C)(CNC(=O)c1ncc(-c2ccc3cc(OCCc4ccc(Cl)cc4)ccc3c2)cc1O)C(=O)O [compound 28, 3-(5-(6-(4-chlorophenethoxy)naphthalen-2-yl)-3-hydroxypicolinamido)-2,2-dimethylpropanoic acid] | ~9 |
| O=C(O)CCNC(=O)c1ncc(-c2cccc(Cl)c2)cc1O [compound 5, 3-(5-(3-chlorophenyl)-3-hydroxypicolinamido)propanoic acid] | ~12 |
| CC(C)(CNC(=O)c1ncc(-c2ccc3ccncc3c2)cc1O)C(=O)O [compound 43, 3-(3-hydroxy-5-(isoquinolin-7-yl)picolinamido)-2,2-dimethylpropanoic acid] | ~1875 |
| CC(C)(CNC(=O)c1ncc(-c2cnc(-c3ccccc3)s2)cc1O)C(=O)O [compound 53, 3-(3-hydroxy-5-(2-phenylthiazol-5-yl)picolinamido)-2,2-dimethylpropanoic acid] | ~1215 |
| CC(C)(CNC(=O)c1ncc(-c2ccc3cc(O)ccc3c2)cc1O)C(=O)O [compound 23, 3-(3-hydroxy-5-(6-hydroxynaphthalen-2-yl)picolinamido)-2,2-dimethylpropanoic acid] | ~113 |
